These results are taken from patent publication US9745308B2, “Pyridazinone derivatives as phoshoinositide 3-kinases inhibitors” (CHIESI FARMACEUTICI S.p.A., priority 2014, dated 2017).

For orientation: IC50 means the concentration that inhibits the measured activity by half. Low values mean greater potency, high ones weaker potency.

The target in one experiment is PI3Kδ (Homo sapiens, UniProt O00329). Nature of the experiment: PI3K enzyme inhibitory activity in the cell free assay (ADP-Glo Kinase Assay), PI3K delta. A general note: ADP-Glo first removes unused ATP, then detects ADP through luciferase.
The next experiment has as its target PI3Kβ (Homo sapiens, UniProt P42338). The experiment in a line: PI3K enzyme inhibitory activity in the cell free assay (ADP-Glo Kinase Assay), PI3K beta.
The target in another experiment is PI3Kα (Homo sapiens, UniProt P42336). The experiment in a line: PI3K enzyme inhibitory activity in the cell free assay (ADP-Glo Kinase Assay), PI3K alpha.
The target of the next experiment is PI3Kγ (Homo sapiens, UniProt P48736). The experiment in a line: PI3K enzyme inhibitory activity in the cell free assay (ADP-Glo Kinase Assay), PI3K gamma.
PI3Kγ, sequence (P48736 whole entry): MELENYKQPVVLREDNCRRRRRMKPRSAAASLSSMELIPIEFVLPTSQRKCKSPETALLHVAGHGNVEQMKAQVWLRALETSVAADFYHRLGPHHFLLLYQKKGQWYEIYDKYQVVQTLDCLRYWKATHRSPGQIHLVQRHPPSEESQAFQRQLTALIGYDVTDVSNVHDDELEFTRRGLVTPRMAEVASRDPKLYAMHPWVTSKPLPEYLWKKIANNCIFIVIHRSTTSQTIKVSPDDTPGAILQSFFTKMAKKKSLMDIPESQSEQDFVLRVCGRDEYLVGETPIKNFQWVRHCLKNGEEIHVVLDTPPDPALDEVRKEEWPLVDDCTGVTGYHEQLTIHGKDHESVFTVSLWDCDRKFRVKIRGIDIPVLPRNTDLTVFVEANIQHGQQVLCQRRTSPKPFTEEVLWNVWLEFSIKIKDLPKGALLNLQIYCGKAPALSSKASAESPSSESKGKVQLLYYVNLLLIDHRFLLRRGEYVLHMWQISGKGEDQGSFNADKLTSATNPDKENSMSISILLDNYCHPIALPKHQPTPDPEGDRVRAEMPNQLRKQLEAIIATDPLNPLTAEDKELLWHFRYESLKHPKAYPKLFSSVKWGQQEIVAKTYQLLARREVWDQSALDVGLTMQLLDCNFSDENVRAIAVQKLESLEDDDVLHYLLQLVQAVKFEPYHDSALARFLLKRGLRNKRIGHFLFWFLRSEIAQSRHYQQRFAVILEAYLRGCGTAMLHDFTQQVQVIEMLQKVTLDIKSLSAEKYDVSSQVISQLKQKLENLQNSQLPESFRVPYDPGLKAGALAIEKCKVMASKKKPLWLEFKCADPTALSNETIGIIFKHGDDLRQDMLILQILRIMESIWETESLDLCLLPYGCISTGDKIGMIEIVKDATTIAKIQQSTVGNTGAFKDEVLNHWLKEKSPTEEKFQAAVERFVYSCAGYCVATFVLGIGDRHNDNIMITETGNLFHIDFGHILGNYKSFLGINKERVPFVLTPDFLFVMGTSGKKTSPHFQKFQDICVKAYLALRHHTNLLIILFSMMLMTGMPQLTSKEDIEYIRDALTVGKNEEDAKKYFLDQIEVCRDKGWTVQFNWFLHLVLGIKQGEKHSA

PI3Kδ, sequence (O00329 whole entry): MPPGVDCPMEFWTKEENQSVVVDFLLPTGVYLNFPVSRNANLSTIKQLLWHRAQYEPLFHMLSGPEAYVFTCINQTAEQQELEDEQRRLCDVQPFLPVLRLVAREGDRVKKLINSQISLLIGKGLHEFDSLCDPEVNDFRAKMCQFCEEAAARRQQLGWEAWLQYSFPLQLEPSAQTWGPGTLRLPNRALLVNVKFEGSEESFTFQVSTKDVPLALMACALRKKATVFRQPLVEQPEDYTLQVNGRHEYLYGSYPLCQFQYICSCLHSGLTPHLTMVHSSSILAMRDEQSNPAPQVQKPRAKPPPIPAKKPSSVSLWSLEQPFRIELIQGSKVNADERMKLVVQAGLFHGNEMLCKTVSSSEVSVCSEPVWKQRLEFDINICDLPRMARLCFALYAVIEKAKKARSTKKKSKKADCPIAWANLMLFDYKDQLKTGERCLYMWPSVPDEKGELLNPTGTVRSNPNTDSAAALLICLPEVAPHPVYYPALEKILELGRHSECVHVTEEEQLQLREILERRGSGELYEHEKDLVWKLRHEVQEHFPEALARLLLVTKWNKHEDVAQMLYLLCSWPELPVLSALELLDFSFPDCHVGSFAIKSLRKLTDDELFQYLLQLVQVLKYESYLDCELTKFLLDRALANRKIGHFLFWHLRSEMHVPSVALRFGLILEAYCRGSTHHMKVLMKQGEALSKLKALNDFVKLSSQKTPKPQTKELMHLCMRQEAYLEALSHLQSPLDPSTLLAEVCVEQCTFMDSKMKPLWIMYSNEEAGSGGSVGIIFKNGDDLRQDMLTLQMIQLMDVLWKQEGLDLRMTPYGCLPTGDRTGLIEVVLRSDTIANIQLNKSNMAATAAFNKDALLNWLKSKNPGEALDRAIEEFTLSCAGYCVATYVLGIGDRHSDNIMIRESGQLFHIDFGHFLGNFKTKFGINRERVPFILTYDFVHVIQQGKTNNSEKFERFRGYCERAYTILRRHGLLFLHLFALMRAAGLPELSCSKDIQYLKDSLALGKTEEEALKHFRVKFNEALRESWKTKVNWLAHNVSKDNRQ
PI3Kδ, sequence (P27986 whole entry partner): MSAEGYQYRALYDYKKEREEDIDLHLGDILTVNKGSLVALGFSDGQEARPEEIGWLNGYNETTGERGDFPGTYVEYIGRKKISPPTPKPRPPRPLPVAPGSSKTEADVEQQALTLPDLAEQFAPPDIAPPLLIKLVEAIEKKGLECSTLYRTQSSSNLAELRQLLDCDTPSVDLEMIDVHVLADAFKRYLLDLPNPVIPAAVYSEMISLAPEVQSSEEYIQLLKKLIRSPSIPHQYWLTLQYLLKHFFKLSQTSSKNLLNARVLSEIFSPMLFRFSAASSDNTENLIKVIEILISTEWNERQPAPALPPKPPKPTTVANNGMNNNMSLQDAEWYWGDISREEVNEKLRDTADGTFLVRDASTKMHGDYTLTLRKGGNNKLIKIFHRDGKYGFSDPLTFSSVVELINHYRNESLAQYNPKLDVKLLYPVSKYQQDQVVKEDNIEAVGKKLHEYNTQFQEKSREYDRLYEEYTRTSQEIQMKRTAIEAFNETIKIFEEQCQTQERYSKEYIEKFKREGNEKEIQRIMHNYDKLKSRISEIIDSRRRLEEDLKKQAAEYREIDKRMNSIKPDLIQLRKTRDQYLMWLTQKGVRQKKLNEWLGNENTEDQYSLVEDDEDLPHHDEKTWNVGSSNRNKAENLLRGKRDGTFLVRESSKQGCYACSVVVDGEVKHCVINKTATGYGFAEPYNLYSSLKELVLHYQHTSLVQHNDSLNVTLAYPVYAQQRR
PI3Kα, sequence (P42336 whole entry): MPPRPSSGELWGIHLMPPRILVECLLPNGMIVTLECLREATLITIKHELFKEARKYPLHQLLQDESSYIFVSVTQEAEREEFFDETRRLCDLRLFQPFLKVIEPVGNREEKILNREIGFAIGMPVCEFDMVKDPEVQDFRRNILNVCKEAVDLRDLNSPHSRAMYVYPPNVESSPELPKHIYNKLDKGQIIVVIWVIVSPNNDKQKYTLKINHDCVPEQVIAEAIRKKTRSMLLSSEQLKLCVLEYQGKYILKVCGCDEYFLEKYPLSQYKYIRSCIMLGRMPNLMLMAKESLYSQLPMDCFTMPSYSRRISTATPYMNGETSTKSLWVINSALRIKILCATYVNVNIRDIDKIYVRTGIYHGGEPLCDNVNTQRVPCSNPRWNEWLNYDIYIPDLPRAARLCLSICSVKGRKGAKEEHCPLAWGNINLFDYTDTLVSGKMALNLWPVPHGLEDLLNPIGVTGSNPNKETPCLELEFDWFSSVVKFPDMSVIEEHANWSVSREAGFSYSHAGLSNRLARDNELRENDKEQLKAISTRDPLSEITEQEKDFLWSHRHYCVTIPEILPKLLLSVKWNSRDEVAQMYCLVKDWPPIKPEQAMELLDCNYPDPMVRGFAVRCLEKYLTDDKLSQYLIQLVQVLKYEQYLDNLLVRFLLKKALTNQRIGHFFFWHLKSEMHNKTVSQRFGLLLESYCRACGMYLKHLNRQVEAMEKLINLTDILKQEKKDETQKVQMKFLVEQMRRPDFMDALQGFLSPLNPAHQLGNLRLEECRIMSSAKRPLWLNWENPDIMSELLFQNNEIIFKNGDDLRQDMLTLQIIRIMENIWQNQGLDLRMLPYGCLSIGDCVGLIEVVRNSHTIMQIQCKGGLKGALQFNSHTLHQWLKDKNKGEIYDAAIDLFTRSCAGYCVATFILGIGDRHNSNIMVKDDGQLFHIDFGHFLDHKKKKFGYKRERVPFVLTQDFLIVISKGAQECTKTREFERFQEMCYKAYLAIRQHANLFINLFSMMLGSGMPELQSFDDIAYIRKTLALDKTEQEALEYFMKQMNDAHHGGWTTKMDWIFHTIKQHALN
PI3Kα, sequence (P27986 whole entry partner): as the sequence (P27986 whole entry partner) above
PI3Kβ, sequence (P42338 whole entry): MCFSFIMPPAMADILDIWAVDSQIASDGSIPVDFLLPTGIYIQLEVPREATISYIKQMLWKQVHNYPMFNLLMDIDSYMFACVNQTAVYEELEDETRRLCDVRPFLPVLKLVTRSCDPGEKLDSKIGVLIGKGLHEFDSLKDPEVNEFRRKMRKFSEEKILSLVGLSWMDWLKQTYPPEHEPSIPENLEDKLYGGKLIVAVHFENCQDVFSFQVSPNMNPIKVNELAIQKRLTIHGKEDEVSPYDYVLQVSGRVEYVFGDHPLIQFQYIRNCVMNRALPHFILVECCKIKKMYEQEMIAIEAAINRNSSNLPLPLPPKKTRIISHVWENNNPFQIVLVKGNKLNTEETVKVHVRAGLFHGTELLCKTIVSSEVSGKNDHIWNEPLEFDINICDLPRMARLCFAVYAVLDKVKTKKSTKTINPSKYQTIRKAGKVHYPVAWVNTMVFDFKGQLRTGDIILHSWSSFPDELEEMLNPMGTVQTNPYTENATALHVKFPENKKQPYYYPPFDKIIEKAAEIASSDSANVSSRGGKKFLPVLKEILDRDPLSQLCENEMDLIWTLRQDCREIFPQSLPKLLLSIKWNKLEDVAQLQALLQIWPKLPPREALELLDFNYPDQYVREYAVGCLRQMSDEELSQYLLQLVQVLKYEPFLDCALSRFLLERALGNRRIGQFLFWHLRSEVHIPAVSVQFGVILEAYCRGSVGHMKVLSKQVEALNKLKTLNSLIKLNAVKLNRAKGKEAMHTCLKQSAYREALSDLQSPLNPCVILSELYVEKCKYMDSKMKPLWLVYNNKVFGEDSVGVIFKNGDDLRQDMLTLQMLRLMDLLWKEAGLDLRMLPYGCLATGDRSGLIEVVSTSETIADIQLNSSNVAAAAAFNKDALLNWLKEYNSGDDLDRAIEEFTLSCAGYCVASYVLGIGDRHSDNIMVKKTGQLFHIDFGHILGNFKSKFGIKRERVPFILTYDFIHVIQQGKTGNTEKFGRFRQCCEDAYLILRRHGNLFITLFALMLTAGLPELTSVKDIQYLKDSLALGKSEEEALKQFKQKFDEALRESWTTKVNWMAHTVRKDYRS
PI3Kβ, sequence (P27986 whole entry partner): as the sequence (P27986 whole entry partner) above

Turning to `CC(Nc1ncnc(N)c1C#N)c1cc(=O)n(Cc2ccccc2)nc1-c1ccccc1` (centres unmarked) [Example 19, 4-amino-6-{[1-(1-benzyl-6-oxo-3-phenyl-1,6-dihydropyridazin-4-yl)ethyl]amino}pyrimidine-5-carbonitrile], the IC50 against PI3Kδ, at PI3Kβ, at PI3Kα and on PI3Kγ was over 1000 nM throughout.

Turning to `CC(Nc1ncnc2[nH]cnc12)c1cc(=O)n(Cc2ccccc2)nc1-c1ccccc1` (centres unmarked) [Example 24, 2-benzyl-6-phenyl-5-{1-[(9H-purin-6-yl)amino]ethyl}-2,3-dihydropyridazin-3-one], the IC50 against PI3Kδ, on PI3Kβ, against PI3Kα and on PI3Kγ was over 1000 nM in each case.

For the compound `CC(c1cnn(-c2ccccc2)c(=O)c1)n1nc(-c2cc(O)cc(F)c2)c2c(N)ncnc21` (centres unmarked) [Example 8, 5-{1-[4-amino-3-(3-fluoro-5-hydroxyphenyl)-1H-pyrazolo[3,4-d]pyrimidin-1-yl]ethyl}-2-phenyl-2,3-dihydropyridazin-3-one], the IC50 is under 10 nM on PI3Kδ, under 10 nM at PI3Kβ, 10 to 1000 nM on PI3Kα and 10 to 1000 nM against PI3Kγ.

With `CC(c1cnn(C)c(=O)c1-c1ccccc1)n1nc(-c2cc(O)cc(F)c2)c2c(N)ncnc21` (centres unmarked) [Example 12, 5-{1-[4-amino-3-(3-fluoro-5-hydroxyphenyl)-1H-pyrazolo[3,4-d]pyrimidin-1-yl]ethyl}-2-methyl-4-phenyl-2,3-dihydropyridazin-3-one], the IC50 against PI3Kδ is under 10 nM; at PI3Kβ, 10 to 1000 nM; on PI3Kα, over 1000 nM; on PI3Kγ it was 10 to 1000 nM.

With `Nc1ncnc2c1c(-c1cc(O)cc(F)c1)nn2Cc1cnn(Cc2ccccc2)c(=O)c1` [Example 18, 5-{[4-amino-3-(3-fluoro-5-hydroxyphenyl)-1H-pyrazolo[3,4-d]pyrimidin-1-yl]methyl}-2-benzyl-2,3-dihydropyridazin-3-one], the IC50 on PI3Kδ was under 10 nM; at PI3Kβ it was 10 to 1000 nM; against PI3Kα, 10 to 1000 nM; at PI3Kγ it was 10 to 1000 nM.

As to `CC(Nc1ncnc(N)c1C#N)c1cc(=O)n(C)nc1-c1ccccc1` (centres unmarked) [Example 20, 4-amino-6-(1-(1-methyl-6-oxo-3-phenyl-1,6-dihydropyridazin-4-yl)ethylamino)pyrimidine-5-carbonitrile], the concentration for half-maximal inhibition (IC50) on PI3Kδ is 10 to 1000 nM; on PI3Kβ it was over 1000 nM; against PI3Kα it was over 1000 nM; against PI3Kγ, over 1000 nM.

For `CC(c1cc(=O)n(Cc2ccccn2)nc1-c1ccccc1)n1nc(-c2cc(O)cc(F)c2)c2c(N)ncnc21` (centres unmarked) [Example 6, 5-{1-[4-amino-3-(3-fluoro-5-hydroxyphenyl)-1H-pyrazolo[3,4-d]pyrimidin-1-yl]ethyl}-6-phenyl-2-(pyridin-2-ylmethyl)-2,3-dihydropyridazin-3-one], the IC50 on PI3Kδ is 10 to 1000 nM; at PI3Kβ, 10 to 1000 nM; at PI3Kα, over 1000 nM; against PI3Kγ, over 1000 nM.

In the case of `CC(c1cnn(C)c(=O)c1)n1nc(-c2cc(O)cc(F)c2)c2c(N)ncnc21` (centres unmarked) [Example 9, 5-{1-[4-amino-3-(3-fluoro-5-hydroxyphenyl)-1H-pyrazolo[3,4-d]pyrimidin-1-yl]ethyl}-2-methyl-2,3-dihydropyridazin-3-one], the IC50 on PI3Kδ was under 10 nM; on PI3Kβ, 10 to 1000 nM; against PI3Kα it was 10 to 1000 nM; against PI3Kγ, 10 to 1000 nM.

In the case of `CC(c1cc(=O)n(C)nc1-c1ccccc1)n1nc(-c2cc(O)cc(F)c2)c2c(N)ncnc21` (centres unmarked) [Example 2, 5-{1-[4-amino-3-(3-fluoro-5-hydroxyphenyl)-1H-pyrazolo[3,4-d]pyrimidin-1-yl]ethyl}-2-methyl-6-phenyl-2,3-dihydropyridazin-3-one], the IC50 was 10 to 1000 nM on PI3Kδ, 10 to 1000 nM against PI3Kβ, over 1000 nM on PI3Kα and 10 to 1000 nM on PI3Kγ.

For the compound `CC(c1cc(=O)n(Cc2ccccc2)nc1-c1ccccc1)n1nc(-c2cc(O)cc(F)c2)c2c(N)ncnc21` (centres unmarked) [Example 1, 5-{1-[4-amino-3-(3-fluoro-5-hydroxyphenyl)-1H-pyrazolo[3,4-d]pyrimidin-1-yl]ethyl}-2-benzyl-6-phenyl-2,3-dihydropyridazin-3-one], the 50% inhibitory concentration (IC50) against PI3Kδ was 10 to 1000 nM; against PI3Kβ it was 10 to 1000 nM; at PI3Kα, over 1000 nM; at PI3Kγ, over 1000 nM.

Turning to `CC(c1cnn(Cc2ccccc2)c(=O)c1)n1nc(-c2cc(O)cc(F)c2)c2c(N)ncnc21` (centres unmarked) [Example 7, 5-{1-[4-amino-3-(3-fluoro-5-hydroxyphenyl)-1H-pyrazolo[3,4-d]pyrimidin-1-yl]ethyl}-2-benzyl-2,3-dihydropyridazin-3-one], the half-maximal inhibitory concentration (IC50) is under 10 nM against PI3Kδ, under 10 nM against PI3Kβ, 10 to 1000 nM against PI3Kα and 10 to 1000 nM at PI3Kγ.

Turning to `CC(Nc1ncnc(N)c1C#N)c1cc(=O)n(C(C)C)nc1-c1ccccc1` (centres unmarked) [Example 21, 4-amino-6-({1-[6-oxo-3-phenyl-1-(propan-2-yl)-1,6-dihydropyridazin-4-yl]ethyl}amino)pyrimidine-5-carbonitrile], the IC50 at PI3Kδ, against PI3Kβ, against PI3Kα and at PI3Kγ was over 1000 nM each time.

Consider `CC(Nc1ncnc(N)c1C#N)c1cc(=O)n(CC2CC2)nc1-c1ccccc1` (centres unmarked) [Example 22, 4-amino-6-({1-[1-(cyclopropylmethyl)-6-oxo-3-phenyl-1,6-dihydropyridazin-4-yl]ethyl}amino)pyrimidine-5-carbonitrile], for which the IC50 at PI3Kδ, at PI3Kβ, against PI3Kα and at PI3Kγ was over 1000 nM in each case.

Turning to `CC(c1cc(=O)n(-c2ccccc2)nc1-c1ccccc1)n1nc(-c2cc(O)cc(F)c2)c2c(N)ncnc21` (centres unmarked) [Example 5, 5-{1-[4-amino-3-(3-fluoro-5-hydroxyphenyl)-1H-pyrazolo[3,4-d]pyrimidin-1-yl]ethyl}-2,6-diphenyl-2,3-dihydropyridazin-3-one], the 50% inhibitory concentration (IC50) against PI3Kδ was 10 to 1000 nM; on PI3Kβ it was 10 to 1000 nM; against PI3Kα, over 1000 nM; on PI3Kγ it was 10 to 1000 nM.

Regarding `CC(c1cnn(-c2ccccc2)c(=O)c1-c1ccccc1)n1nc(-c2cc(O)cc(F)c2)c2c(N)ncnc21` (centres unmarked) [Example 13, 5-{1-[4-amino-3-(3-fluoro-5-hydroxyphenyl)-1H-pyrazolo[3,4-d]pyrimidin-1-yl]ethyl}-2,4-diphenyl-2,3-dihydropyridazin-3-one], the half-maximal inhibitory concentration (IC50) against PI3Kδ, on PI3Kβ, against PI3Kα and on PI3Kγ was 10 to 1000 nM in each case.

With `CC(C)n1nc(-c2ccccc2)c(C(C)n2nc(-c3cc(O)cc(F)c3)c3c(N)ncnc32)cc1=O` (centres unmarked) [Example 3, 5-{1-[4-amino-3-(3-fluoro-5-hydroxyphenyl)-1H-pyrazolo[3,4-d]pyrimidin-1-yl]ethyl}-6-phenyl-2-(propan-2-yl)-2,3-dihydropyridazin-3-one], the 50% inhibitory concentration (IC50) is 10 to 1000 nM at PI3Kδ, 10 to 1000 nM at PI3Kβ, over 1000 nM against PI3Kα and over 1000 nM at PI3Kγ.

With `CC(c1cc(=O)n(CC2CC2)nc1-c1ccccc1)n1nc(-c2cc(O)cc(F)c2)c2c(N)ncnc21` (centres unmarked) [Example 4, 5-{1-[4-amino-3-(3-fluoro-5-hydroxyphenyl)-1H-pyrazolo[3,4-d]pyrimidin-1-yl]ethyl}-2-(cyclopropylmethyl)-6-phenyl-2,3-dihydropyridazin-3-one], the IC50 against PI3Kδ was 10 to 1000 nM; against PI3Kβ it was 10 to 1000 nM; against PI3Kα, over 1000 nM; on PI3Kγ it was over 1000 nM.

Take `CC(c1cnn(CCN2CCOCC2)c(=O)c1-c1ccccc1)n1nc(-c2cc(O)cc(F)c2)c2c(N)ncnc21` (centres unmarked) [Example 14, 5-{1-[4-amino-3-(3-fluoro-5-hydroxyphenyl)-1H-pyrazolo[3,4-d]pyrimidin-1-yl]ethyl}-2-[2-(morpholin-4-yl)ethyl]-4-phenyl-2,3-dihydropyridazin-3-one]: the concentration for half-maximal inhibition (IC50) against PI3Kδ is under 10 nM; against PI3Kβ it was over 1000 nM; on PI3Kα, over 1000 nM; at PI3Kγ, over 1000 nM.

Regarding `CC(c1cnn(-c2cccnc2)c(=O)c1-c1ccccc1)n1nc(-c2cc(O)cc(F)c2)c2c(N)ncnc21` (centres unmarked) [Example 15, 5-{1-[4-amino-3-(3-fluoro-5-hydroxyphenyl)-1H-pyrazolo[3,4-d]pyrimidin-1-yl]ethyl}-4-phenyl-2-(pyridin-3-yl)-2,3-dihydropyridazin-3-one], the half-maximal inhibitory concentration (IC50) against PI3Kδ was under 10 nM; at PI3Kβ, 10 to 1000 nM; against PI3Kα, over 1000 nM; at PI3Kγ, 10 to 1000 nM.

`CC(Nc1ncnc(N)c1C#N)c1cc(=O)n(-c2ccccc2)nc1-c1ccccc1` (centres unmarked) [Example 23, 4-amino-6-{[1-(6-oxo-1,3-diphenyl-1,6-dihydropyridazin-4-yl)ethyl]amino}pyrimidine-5-carbonitrile]: the IC50 against PI3Kδ, against PI3Kβ, on PI3Kα and against PI3Kγ was over 1000 nM in each case.
